Experimental data from patent publication US10201532B2, “Compounds and their use” (ALLECRA THERAPEUTICS GMBH, priority 2010, dated 2019).

Assays:
[1] = system: E. coli Ecoli233 (KPC3); experiment: Disk zone of inhibition, antibiotic + Compound-1 on same disk (Methodology 2); assay type: cell-based, Escherichia coli
Text: (§1) In this experiment, Compound-1 is used as a diagnostic reagent for the detection of β-lactamases belonging to the families KPC & ESBL (e.g., SHV18) producing Enterobacteriaceae. A simple set of absorbent paper disks impregnated with antibiotic on agar medium is used for the detection.
(§2) • 0.5 McFarland of the test organism was inoculated at 1:10 dilution on Muller • Hinton Agar plates • Test organisms: Klebsiella pneumoniae (K.p) ATCC BAA-1705, Klebsiella pneumoniae ATCC 700603, Escherichia coli (E.c) Ecoli233 • Carbapenem (e.g., Imipenem [IPM] 10 μg) and cephalosporin (e.g., Ceftazidime [CAZ] 30 μg) paper disks (7 mm) were placed on the inoculated agar plates • Compound-1 (60 μg) disk was placed at a distance of 7 & 10 mm from the carbapenem and cephalosporin disks. • The presence of expressed carbapenemases or ESBLs was measured as the expansion of Imipenem or Ceftazidime's inhibition zones due to synergy in the presence of Compound-1.
The methodology remains the same as Methodology 1 except the following change • Compound-1 (60 μg) was added on the same disk in combination with a carbapenem (e.g., Imipenem 10 μg) or cephalosporin (e.g., Ceftazidime 30 μg) and placed on the inoculated agar plate. • The presence of the expressed carbapenemases or ESBLs was measured as an increase in Imipenem or Ceftazidime's zone diameter in combination with Compound-1 compared to antibiotic alone. Results

[2] = system: E. coli ATCC 25922 (β-lac-ve); experiment: as above; assay type: cell-based, Escherichia coli
[3] = system: KPC/ESBL producing Enterobacteriaceae; experiment: Double Disk Synergy Test (Methodology 1); assay type: cell-based, Klebsiella pneumoniae, Escherichia coli; conditions: Compound-1 60 μg disk at 7 & 10 mm from antibiotic disks; FIG. 1
Text: as §1, §2

[4] = system: E. coli BAA-200 (SHV-4); experiment: MIC of Piperacillin with inhibitor, ESBL isolates; assay type: cell-based, Escherichia coli
[5] = system: E. coli BAA-197 (TEM-12); experiment: MIC of Piperacillin with inhibitor, ESBL isolates; assay type: cell-based, Escherichia coli
[6] = system: E. coli BAA-199 (SHV-3); experiment: MIC of Piperacillin with inhibitor, ESBL isolates; assay type: cell-based, Escherichia coli
[7] = system: E. coli BAA-201 (TEM-3); experiment: MIC of Piperacillin with inhibitor, ESBL isolates; assay type: cell-based
[8] = system: K. pneumoniae 700603 (SHV-18); experiment: MIC of Piperacillin with inhibitor, ESBL isolates; assay type: cell-based, Klebsiella pneumoniae

## C[n+]1ccn(C[C@@]2(C)[C@H](C(=O)[O-])N3C(=O)C[C@H]3S2(=O)=O)n1 [Compound-1, 1-{[(2S,3S,5R)-2-Carboxy-3-methyl-4,4,7-trioxo-4-thia-1-azabicyclo[3.2.0]hept-3-yl]methyl}-3-methyl-1H-1,2,3-triazol-3-ium]
[1]; Ceftazidime 30 μg + Compound-1 60 μg on same disk
  ZOI of CAZ + Compound-1: 22.5 mm
[1]; Imipenem 10 μg + Compound-1 60 μg on same disk
  ZOI of IPM + Compound-1: 20 mm
[2]; Ceftazidime 30 μg + Compound-1 60 μg on same disk, ATCC 25922
  ZOI of CAZ + Compound-1: 25 mm
[2]; Imipenem 10 μg + Compound-1 60 μg on same disk, ATCC 25922
  ZOI of IPM + Compound-1: 26.5 mm
[2]; β-lactamase negative strain, FIG. 1 (D)
  Zone of inhibition of compound-1 alone: does not show any zone of inhibition
[3]
  Synergy: increase of Imipenem or Ceftazidime zone adjacent to Compound-1 disk: Synergy was observed

## C[C@]1(Cn2ccnn2)[C@H](C(=O)O)N2C(=O)C[C@H]2S1(=O)=O [Tazobactam]
[4]; inhibitor at 1 μg/mL
  MIC of Piperacillin with inhibitor: >128 µg/mL
[4]; inhibitor at 2 μg/mL
  MIC of Piperacillin with inhibitor: >128 µg/mL
[4]; inhibitor at 4 μg/mL
  MIC of Piperacillin with inhibitor: 4 µg/mL
[5]; inhibitor at 1 μg/mL
  MIC of Piperacillin with inhibitor: 64 µg/mL
[5]; inhibitor at 2 μg/mL
  MIC of Piperacillin with inhibitor: 8 µg/mL
[5]; inhibitor at 4 μg/mL
  MIC of Piperacillin with inhibitor: 4 µg/mL
[6]; inhibitor at 1 μg/mL
  MIC of Piperacillin with inhibitor: >128 µg/mL
[6]; inhibitor at 2 μg/mL
  MIC of Piperacillin with inhibitor: >128 µg/mL
[6]; inhibitor at 4 μg/mL
  MIC of Piperacillin with inhibitor: >128 µg/mL
[7]; inhibitor at 1 μg/mL
  MIC of Piperacillin with inhibitor: 4 µg/mL
[7]; inhibitor at 2 μg/mL
  MIC of Piperacillin with inhibitor: 4 µg/mL
[7]; inhibitor at 4 μg/mL
  MIC of Piperacillin with inhibitor: 2 µg/mL
[8]; inhibitor at 1 μg/mL
  MIC of Piperacillin with inhibitor: 16 µg/mL
[8]; inhibitor at 2 μg/mL
  MIC of Piperacillin with inhibitor: 16 µg/mL
[8]; inhibitor at 4 μg/mL
  MIC of Piperacillin with inhibitor: 16 µg/mL
